Experimental data taken from patent publication US10202413B2, “Neuroactive enantiomeric 15-, 16- and 17-substituted steroids as modulators for GABA type-A receptors” (priority 2013, dated 2019).
Read-outs that look alike come from different tables or passages of the source. Marks after values point to notes of the source that are not given here.

Experiments:
[1] = target: picrotoxin binding site on GABAA receptors; experiment: [35S]-TBPS displacement (inhibition of [35S]-TBPS binding); settings: non-competitive displacement of [35S]-TBPS; ± standard error of the mean
Procedure: The IC50 values for the compounds of the examples as non-competitive displacers of [^35S]-TBPS from the picrotoxin binding site on GABAA receptors are reported in Table 1.
Results presented are from duplicate experiments performed in triplicate. Error limits are calculated as standard error of the mean. Methods used are known in the art (see, e.g., Jiang, et al., Neurosteroid analogues. 9. Conformationally constrained pregnanes: structure-activity studies of 13,24-cyclo-18,21-dinorcholane analogues of the GABA modulatory and anesthetic steroids (3α,5α)- and (3α,5β)-3-hydroxypregnan-20-one. J. Med. Chem. 2003, 46, 5334-5348).

[2] = target: T1, rat α1β2γ2L type GABAA receptors expressed in Xenopus laevis oocytes (Rattus norvegicus, UniProt P18508+P62813+P63138, INS375LLRMFSFK); experiment: Oocyte electrophysiology: potentiation of chloride currents mediated by 2 μM GABA, and direct gating; type: cell-based; settings: ± SEM (N≥4); for ratio of currents measured in the presence/absence of added compound, 0.1 μM: 0.1 μM compound; for ratio of currents measured in the presence/absence of added compound, 0.1 μM / ratio of currents measured in the presence/absence of added compound, 1.0 μM / ratio of currents measured in the presence/absence of added compound, 10 μM: 2 μM GABA; for ratio of currents measured in the presence/absence of added compound, 1.0 μM: 1.0 μM compound; for ratio of currents measured in the presence/absence of added compound, 10 μM: 10 μM compound; for (gating) 10 μM: ratio of compound only current/GABA current: direct current gated by 10 μM compound in the absence of GABA
T1 construct: expressed in transfected cells; host or cells: Xenopus laevis oocytes
T1 sequence (P62813 28-455, stated change not applied): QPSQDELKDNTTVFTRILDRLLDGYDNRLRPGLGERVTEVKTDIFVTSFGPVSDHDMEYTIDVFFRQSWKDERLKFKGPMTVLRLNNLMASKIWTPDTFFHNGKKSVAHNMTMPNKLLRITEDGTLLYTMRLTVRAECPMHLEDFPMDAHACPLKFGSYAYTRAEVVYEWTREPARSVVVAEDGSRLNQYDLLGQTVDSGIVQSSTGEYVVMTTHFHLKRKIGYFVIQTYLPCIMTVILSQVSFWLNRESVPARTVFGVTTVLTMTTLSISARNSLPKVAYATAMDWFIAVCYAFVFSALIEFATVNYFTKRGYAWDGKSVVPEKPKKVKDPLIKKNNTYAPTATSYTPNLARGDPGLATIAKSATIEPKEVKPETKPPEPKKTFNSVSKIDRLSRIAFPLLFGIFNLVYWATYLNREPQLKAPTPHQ
T1 sequence (P63138 26-474, stated change not applied): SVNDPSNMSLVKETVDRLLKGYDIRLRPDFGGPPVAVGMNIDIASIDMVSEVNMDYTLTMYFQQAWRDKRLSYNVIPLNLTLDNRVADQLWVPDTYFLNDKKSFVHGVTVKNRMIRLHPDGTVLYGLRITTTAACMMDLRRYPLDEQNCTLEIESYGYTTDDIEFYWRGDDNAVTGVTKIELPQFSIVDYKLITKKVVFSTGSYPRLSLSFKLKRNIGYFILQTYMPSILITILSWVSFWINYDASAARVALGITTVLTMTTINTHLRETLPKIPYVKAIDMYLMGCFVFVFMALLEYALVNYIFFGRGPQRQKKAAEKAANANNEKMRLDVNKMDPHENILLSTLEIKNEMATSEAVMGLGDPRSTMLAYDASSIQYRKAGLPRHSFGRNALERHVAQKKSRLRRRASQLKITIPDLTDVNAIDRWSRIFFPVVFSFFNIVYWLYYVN
T1 sequence (P18508 with tags, fused parts or gaps INS375LLRMFSFK): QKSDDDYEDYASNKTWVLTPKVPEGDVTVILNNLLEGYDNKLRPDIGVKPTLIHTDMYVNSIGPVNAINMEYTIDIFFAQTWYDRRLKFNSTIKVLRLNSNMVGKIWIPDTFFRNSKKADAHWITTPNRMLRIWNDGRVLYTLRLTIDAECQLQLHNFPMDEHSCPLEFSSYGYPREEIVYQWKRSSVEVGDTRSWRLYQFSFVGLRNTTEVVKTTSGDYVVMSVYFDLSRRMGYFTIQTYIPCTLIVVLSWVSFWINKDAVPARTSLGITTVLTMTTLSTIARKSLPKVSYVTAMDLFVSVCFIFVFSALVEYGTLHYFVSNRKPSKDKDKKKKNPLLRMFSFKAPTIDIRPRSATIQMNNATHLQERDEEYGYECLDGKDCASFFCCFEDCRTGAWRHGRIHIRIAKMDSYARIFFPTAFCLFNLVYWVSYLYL
Procedure: The compounds of the present disclosure were evaluated for the ability to potentiate chloride currents mediated by 2 μM GABA at rat α1β2γ2L type GABAA receptors expressed in Xenopus laevis oocytes and the results are shown in Table 2.
The GABA concentration used for the control response was 2 μM. Each compound was evaluated on at least four different oocytes at the concentrations indicated, and the results reported are the ratio of currents measured in the presence/absence of added compound. Gating represents direct current gated by 10 μM compound in the absence of GABA, and this current is reported as the ratio of compound only current/[…] current. Error limits are calculated as standard error of the mean (N≥4). Receptor expression and whole-cell and single-channel recordings were carried out as described previously (see Jiang, et al., Neurosteroid analogues. 9. Conformationally constrained pregnanes: structure-activity studies of 13,24-cyclo-18,21-dinorcholane analogues of the GABA modulatory and anesthetic steroids (3α,5α)- and (3α,5β)-3-hydroxypregnan-20-one. J. Med. Chem. 2003, 46, 5334-5348).

Tadpole = Tadpole loss of righting (LRR) and loss of swimming (LSR) reflexes; type: in vivo; settings: for EC50: ± SEM; for tadpoles that lost LRR / tadpoles that lost LSR: concentration of 3 μM, number of 10 tadpoles
Description: Table 3 discloses the anesthetic effects of the compounds of the present disclosure. In particular, the anesthetic effect of the compounds of the present disclosure on Loss of Righting Reflex (LRR) and Loss of Swimming Reflex (LSR).
Methods used are known in the art (see, e.g., Jiang, et al., Neurosteroid analogues. 9. Conformationally constrained pregnanes: structure-activity studies of 13,24-cyclo-18,21-dinorcholane analogues of the GABA modulatory and anesthetic steroids (3α,5α)- and (3α,5β)-3-hydroxypregnan-20-one. J. Med. Chem. 2003, 46, 5334-5348). Error limits are calculated as standard error of the mean (N=10 or more animals at each of five or more different concentrations).

mice = experiment: Mouse duration of anesthesia (LRR) after tail vein injection; type: in vivo
Procedure: The compounds were dissolved in 22.5% aqueous 2-(hydroxypropyl)-β-cyclodextrin. For compound 28, serial dilutions of a 8 mg/kg stock solution with 0.9% saline were made to obtain the lower doses tested.
At a dose of 8 mg/kg, compound MQ-35 caused LRR of about 3 minutes and at a dose of 16 mg/kg duration of LRR was increased to about 7 minutes.
At 4 mg/kg, LRR induced by KK-122 lasted about 5 minutes and at a dose of 8 mg/kg LRR lasted for about 9 minutes. For all three compounds, the onset of anesthesia was immediate (i.e., less than 30 seconds) and recovery was characterized by a rapid progression over 1-2 minutes from an initial return of leg movement followed by righting and subsequent walking around the cage.

[3] = loss of righting reflex, read-out: Tadpole LRR EC50
[4] = loss of swimming reflex, read-out: Tadpole LSR EC50

Structure (SMILES)	IC50 [1]	ratio of currents measured in the presence/absence of added compound, 0.1 μM [2]	ratio of currents measured in the presence/absence of added compound, 1.0 μM [2]	ratio of currents measured in the presence/absence of added compound, 10 μM [2]	(gating) 10 μM: ratio of compound only current/GABA current [2]	EC50 (Tadpole; [3])	EC50 (Tadpole; [4])	melting point	tadpoles that lost LRR (Tadpole)	tadpoles that lost LSR (Tadpole)	duration of anesthesia (LRR) (mice; 16 mg/kg)	duration of anesthesia (LRR) (mice; 8 mg/kg)	duration of anesthesia (LRR) (mice; 1 mg/kg)	duration of anesthesia (LRR) (mice; 4 mg/kg)	duration of anesthesia (LRR) (mice; threshold dose of 2 mg/kg)
CO[C@H]1CC[C@]2(C)CC[C@@H]3[C@H](CC[C@@H]4C[C@@H](O)CC[C@]43C)[C@@H]12 [MQ-117, (3β,5β,8α,9β,10α,13α,14β,15α)-15-Methxoyandrostan-3-ol]	19 ± 8 nM	3.43 ± 0.29	11.10 ± 1.16	26.20 ± 2.91	0.06 ± 0.02	79 ± 3 nM	330 nM	137 to 139 °C							
C[C@@]12CC[C@@H]3[C@H](CC[C@@H]4C[C@@H](O)CC[C@]43C)[C@H]1C[C@@H](C#N)C2 [KK-142, (3β,5β,8α,9β,10α,13α,14β,16α)-3-Hydroxyandrost-16-carbonitrile]	29 ± 3 nM	2.20 ± 0.20	8.83 ± 3.12	13.32 ± 4.54	0.03 ± 0.01			206 to 208 °C	10/10^a	10/10^a					
CO[C@H]1[C@H]2CC[C@H]3[C@@H](CC[C@@]4(C)C(=O)CC[C@H]34)[C@]2(C)CC[C@@H]1O [KK-117, (3β,4α,5β,8α,9β,10α,13α,14β)-3-Hydroxy-4-methoxyandrostan-17-one]	198 ± 25 nM	1.21 ± 0.02	3.67 ± 0.33	12.21 ± 1.26	0.05 ± 0.03	590 ± 70 nM	2940 nM	215 to 218 °C							
CC(=O)[C@H]1CC[C@H]2[C@@H]3CC[C@H]4C[C@H](O)CC[C@]4(C)[C@H]3C(=O)C[C@]12C [alphaxalone, reference compound]											about 4 minutes				
CO[C@@H]1C[C@@H]2[C@H]3C[C@H](OC)[C@@H]4C[C@@H](O)CC[C@@]4(C)[C@@H]3CC[C@@]2(C)C1 [MQ-125, (3β,5β,6α,8α,9β,10α,13α,14β,16α)-6,16-Dimethoxyandrostan3-ol]	121 ± 10 nM	1.19 ± 0.18	5.02 ± 0.40	14.08 ± 2.23	0.43 ± 0.41			127 to 129 °C	10/10^a	10/10^a					
C[C@@]12CC[C@H](O)C[C@H]1CC[C@H]1[C@H]2CC[C@@]2(C)C=C(C#N)C[C@H]12 [KK-141, (3β,5β,8α,9β,10α,13α,14β)-3-Hydroxyandrost-16-ene-16-carbonitrile]	154 ± 19 nM	1.08 ± 0.11	1.35 ± 0.08	1.58 ± 0.13	0.08 ± 0.06			247 to 249 °C	5/10^b	0/10^c					
C[C@@]12CC[C@H]3[C@@H]4CC[C@H](O)C[C@H]4CC[C@@H]3[C@H]1CC(=O)C2 [KK-103]	238 ± 21 nM	0.97 ± 0.02	2.43 ± 0.02	10.52 ± 0.61	0.02 ± 0.01	1160 ± 210 nM	5480 ± 120 nM	160 to 162 °C							
C[C@@]12CC[C@@H]3[C@H](CC[C@@H]4C[C@@H](O)CC[C@]43C)[C@H]1CC(=O)C2 [MQ-35, (3β,5β,8α,9β,10α,13α,14β)-3-Hydroxyandrostan-16-one]	81 ± 8 nM	1.42 ± 0.02	7.72 ± 0.39	34.70 ± 1.69	0.15 ± 0.04	550 ± 90 nM	1730 ± 40 nM	152 to 153 °C			about 7 minutes	about 3 minutes			
CO[C@H]1[C@H]2CC[C@@H]3[C@H]4CC(=O)C[C@]4(C)CC[C@H]3[C@]2(C)CC[C@@H]1O [KK-122, (3β,4α,5β,8α,9β,10α,3α,14β)-3-Hydroxy-4-methoxyandrostan-16-one]	83 ± 11 nM	1.41 ± 0.07	6.48 ± 0.40	16.00 ± 2.21	0.08 ± 0.03	340 ± 400 nM	1730 ± 30 nM	198 to 200 °C				about 9 minutes	no LRR was observed	about 5 minutes	about 1 minute
C[C@@]12CC[C@@H]3[C@H](CC[C@H]4C[C@@H](O)CC[C@]43C)[C@H]1C[C@@H](C#N)C2 [KK-137, (3β,5α,8α,9β,10α,13α,14β,16α)-3-Hydroxyandrost-16-carbonitrile]	22 ± 4 nM	2.32 ± 0.17	7.08 ± 0.54	10.17 ± 0.68	−0.04 ± 0.08	130 nM	550 ± 10 nM	155 to 157 °C							
